In assay [1] the test system is IL-4 induced germline ε transcription (ε promoter reporter in A5T4 cells). Put plainly: Re-infection (DNA transfer) assay in naïve A5T4 reporter cells; functional profile of mutants. It is filed as cell-based, human. The note with it: for Reporter Ratio: screening in the A5T4 reporter line, wild type and mutants. As for the experimental part: The ability of peptide CL02A3 wt to inhibit germline ε transcription was confirmed in naïve cells. Briefly, Phoenix cells were transfected with a retroviral vector encoding a BFP-CL02A3 wt peptide fusion as described in WO 99/58663 and WO 97/27213. Naïve A5T4 cells were infected with the resultant virions and grown for 3 days. The infected cells were stimulated with IL-4 (60 U/mL) and, after 3 days, the cells were assessed by FACS for BFP and GFP.
A collection of CL02A3 mutants was generated by replacing single or double amino acid residues in the sequence of CL02A3 wt with a different amino acid, typically an alanine or glycine, as described in copending application Ser. No. 10/095,659, entitled Methods of Identifying Protein Targets, filed Mar. 8, 2002. The functional profiles for the mutants derived from CL02A3 wt was obtained by constructing and screening for activity in the A5T4 reporter cell line in the manner described above. The activity of each mutant at the germline ε promoter is reflected in the reporter ratio, as described above. The reporter ratios were the functional values that were used to develop the functional profiles.
TABLE 2 depicts the amino acid sequences (the dual alanine mutations are underlined) of the mutants tested and the measured reporter ratios when screening in the A5T4 reporter line.
Comparison of the interaction and functional profiles was performed by categorizing the mutants of CL02A3 based on the functional and interaction assays. Based on the reporter ratio, described in panel C of FIG. 4, each mutant was categorized into one of four functional categories: (1) reduction of function (ROF); (2) loss of function (LOF); (3) increase of function (IOF) or (4) functionally neutral (N), as compared to the activity of the wild type peptide, here CL02A3 wt. As mentioned previously, cells expressing a peptide that inhibits germline ε transcription have reporter ratios of ≧1.1. Cells expressing a loss of function mutant have a reporter ratio of […]. […] Functionally neutral mutants have reporter ratios that fall within ±50% of that of the CL02A3 wt peptide. The % increase or decrease in reporter ratio is calculated after subtracting 1.0 from the individual ratios. Using these criteria, peptides CL02A3LG (SEQ ID NO:2), CL02A3TP (SEQ ID NO:4), and CL02A3EQ (SEQ ID NO:5) were designated as IOF mutants, peptide CL02A3LGW (SEQ ID NO:3), CL02A3HH (SEQ ID NO:8), CL02A3PW (SEQ ID NO:9) were designated as ROF mutants, peptides CL02A3HG (SEQ ID NO:6), and CL02A3GC (SEQ ID NO:7) were designated as neutral, and peptide CL02A3AM (SEQ ID NO:10) was designated as a LOF mutant.

Assay [2] deals with T1, human CLLD8 protein (hCLLD8) (Homo sapiens, UniProt Q96T68, E117G/V473M).
T1 construct: expressed in transfected cells; prey cDNA came from a library of the A5T4 (BJAB-derived human B-cell) reporter line
T1 sequence (Q96T68 1-719 E117G/V473M): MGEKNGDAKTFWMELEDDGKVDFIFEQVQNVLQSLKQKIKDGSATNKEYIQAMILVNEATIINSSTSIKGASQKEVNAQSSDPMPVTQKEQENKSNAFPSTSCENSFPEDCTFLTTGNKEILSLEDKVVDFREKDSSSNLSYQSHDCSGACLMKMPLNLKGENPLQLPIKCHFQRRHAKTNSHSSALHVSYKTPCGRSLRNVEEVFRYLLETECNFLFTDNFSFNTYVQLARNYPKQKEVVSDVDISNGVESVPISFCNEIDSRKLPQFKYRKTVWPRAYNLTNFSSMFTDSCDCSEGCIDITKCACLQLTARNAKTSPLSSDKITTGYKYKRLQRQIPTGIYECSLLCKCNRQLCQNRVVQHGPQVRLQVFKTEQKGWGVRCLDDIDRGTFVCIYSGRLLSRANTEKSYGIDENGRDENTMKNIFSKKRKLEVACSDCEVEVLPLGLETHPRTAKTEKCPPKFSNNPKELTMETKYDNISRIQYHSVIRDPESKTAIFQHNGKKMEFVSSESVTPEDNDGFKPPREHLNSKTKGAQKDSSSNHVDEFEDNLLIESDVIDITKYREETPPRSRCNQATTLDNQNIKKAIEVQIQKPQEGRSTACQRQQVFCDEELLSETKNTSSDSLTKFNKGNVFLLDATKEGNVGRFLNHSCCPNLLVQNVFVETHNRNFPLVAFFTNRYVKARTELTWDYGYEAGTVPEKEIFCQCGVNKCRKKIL
Put plainly: β-galactosidase yeast two hybrid (YTH) interaction assay. It is filed as binding. As for the experimental part:
Potential binding partners for peptide CL02A3 wt were identified in a β-galactosidase yeast two-hybrid (YTH) assay using peptide CL02A3 wt as bait and a cDNA library constructed from the A5T4 reporter cell line as prey. Binding was assessed by β-galactosidase quantification using BetaFluor (Novagen) as a substrate. A negative interaction control (no cDNA fused downstream of the GAL4 activation domain sequence) was also run. A general outline of the YTH assay is illustrated in FIG. 5A. Following clustering, filtering to remove non-specific bait hits (e.g., GFP and BFP), singletons and clusters recognized by 10 or more cDNA baits (based upon historical YTH assays), and prioritization, 64 prey clones were identified as hits.
Potential targets identified in the YTH assay were reconfirmed as generally outlined in FIG. 6. The cDNA clones identified as hits in the YTH assay were purified and rescreened for interaction with the CL02A3 wt peptide in a YTH assay. The hit clones were also screened in a control assay for interaction with the BFP using a vector (pGBKT7) that contained only the BFP and not the CL02A3 peptide. At this stage, 51 putative target clones remained.
The interaction of CL02A3 wt peptide and its mutants with the clones identified as potential targets for the peptide CL02A3 wt was then quantified in a β-galactosidase YTH assay. The YTH assay was performed in the manner described above. A general outline of this YTH assay is illustrated in FIG. 5B. For each clone tested, an interaction profile was developed by comparing the β-galactosidase activity of each mutant to that of the wild type peptide, as described above.
The interaction of these IOF, ROF and LOF mutants with different polypeptides encoded by the putative target clones were quantified using the YTH assay described above. […]

Assay [3] relates to endogenous germline α promoter. Put plainly: TAQMAN assay of endogenous germline α promoter transcription in ST486 cells. It is filed as cell-based. The note with it: ST486 cells stimulated with TGF-β 40 ng/ml; average of 3 values. As for the experimental part: The assay was similar to that described in the immediately preceding section, except that ST486 cells (ATCC # CRL-1647) engineered to express the tetracycline-regulated transactivator were infected and the infected cells were stimulated with TGF-β (40 ng/ml; Peprotech). The primers and probe, which are specific for the transcription product driven by the ST486 endogenous α promoter, were as follows (the probe was labeled at the 5′-end with Fam and at the 3′-end with Tamra): […]
Background: In qPCR the cycle at which signal appears reflects the starting amount.

Turning to “AMAAHHGWPWGMEQGCTPLG (peptide encoded by synthetic oligomer) [CL02A3HG]”, the “Reporter Ratio” value in assay [1] is recorded as 1.5.
Still for that read-out and setting: then “AMHGAAGWPWGMEQGCTPLG (peptide encoded by synthetic oligomer) [CL02A3HH]”, with 1.29.
For “AMHGHHAAPWGMEQGCTPLG (peptide encoded by synthetic oligomer) [CL02A3GW]”, the “binding to human CLLD8 protein in yeast two hybrid interaction assay” value (from here on “binding to human CLLD8 protein”) in assay [2] is given as “found to bind”.
Turning to “AMHGHHGWAAGMEQGCTPLG (peptide encoded by synthetic oligomer) [CL02A3PW]”, the “Reporter Ratio” value in assay [1] came out at 1.24.
Still for that read-out and setting: then “AMHGHHGWPWGMAAGCTPLG (peptide encoded by synthetic oligomer) [CL02A3EQ]”, with 2.23,; and “AMHGHHGWPWGMEQAATPLG (peptide encoded by synthetic oligomer) [CL02A3GC]”, with 1.89; and “AMHGHHGWPWGMEQGCAALG (peptide encoded by synthetic oligomer) [CL02A3TP]”, with 1.91.
“AMHGHHGWPWGMEQGCTPAA (peptide encoded by synthetic oligomer) [CL02A3LG]”: the “binding to human CLLD8 protein” value in assay [2] is given as “found to bind”.
“AMHGHHGWPWGMEQGCTPLG (peptide encoded by synthetic oligomer) [CL02A3wt]”: the “binding to human CLLD8 protein” value in assay [2] is “found to bind”. The “endogenous α inhibition ratio” value in assay [3] is given as 0.89.
Consider “RAHGHHGWPWGMEQGCTPLG (peptide encoded by synthetic oligomer) [CL02A3AM]”, for which the “functional category compared to CL02A3 wt, based on reporter ratio” value in assay [1] (% change calculated after subtracting 1.0 from the ratios) is given as “LOF (Cells expressing a loss of function mutant have a reporter ratio of <1.11)”.

These data come from patent US7422867B2, “Methods of identifying compounds that modulate IL-4 receptor mediated IgE synthesis utilizing a CLLD8 protein” (Rigel Pharmaceuticals, Inc., priority 2002, dated 2008).
